Measured values reported in PubChem BioAssay (NCI).
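Exposure lasted 48 hours, with cells grown in 96-well plates and compounds tested at five concentrations. GI50: concentration for 50% inhibition of growth. At the TGI there is no net growth.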

How the values were obtained:
Experiment in all cases: inhibition of tumour cell growth, NCI panel, 48 h
SF-295 CNS = system: SF-295 CNS
NCI-H226 lung = system: NCI-H226 lung
SK-MEL-28 melanoma = system: SK-MEL-28 melanoma
SR leukemia = system: SR leukemia
CAKI-1 renal = system: CAKI-1 renal
CCRF-CEM leukemia = system: CCRF-CEM leukemia
SF-268 CNS = system: SF-268 CNS
OVCAR-4 ovarian = system: OVCAR-4 ovarian
OVCAR-5 ovarian = system: OVCAR-5 ovarian
786-0 renal = system: 786-0 renal

| Compound | GI50 (SF-295 CNS) [µM] | TGI (SF-295 CNS) [µM] | GI50 (NCI-H226 lung) [µM] | TGI (NCI-H226 lung) [µM] | GI50 (SK-MEL-28 melanoma) [µM] | TGI (SK-MEL-28 melanoma) [µM] | GI50 (SR leukemia) [µM] | TGI (SR leukemia) [µM] | GI50 (CAKI-1 renal) [µM] | TGI (CAKI-1 renal) [µM] | GI50 (CCRF-CEM leukemia) [µM] | TGI (CCRF-CEM leukemia) [µM] | GI50 (SF-268 CNS) [µM] | TGI (SF-268 CNS) [µM] | GI50 (OVCAR-4 ovarian) [µM] | TGI (OVCAR-4 ovarian) [µM] | GI50 (OVCAR-5 ovarian) [µM] | TGI (OVCAR-5 ovarian) [µM] | GI50 (786-0 renal) [µM] | TGI (786-0 renal) [µM] |
| --- | --- | --- | --- | --- | --- | --- | --- | --- | --- | --- | --- | --- | --- | --- | --- | --- | --- | --- | --- | --- |
| FC(F)(F)c1ccc(-c2cnc(-n3cc(COCCN4CCCCC4)nn3)nc2NC2CCCCCC2)cc1 | 4.85 | 9.85 | 3.54 | 7.83 | 3.6 | 6.99 | 2.61 | 7.73 | 3.51 | 7.33 | 4.23 | 10.7 | 3.98 | 7.87 | 3.11 | 6.35 | 4.72 | 8.79 | 3.73 | 7.28 |
| O=c1cc(-c2c[nH]c3ccccc23)[nH]c2cc3c(cc12)OCO3 | – | > 100 | – | > 100 | – | > 100 | – | > 100 | – | – | – | > 100 | – | > 100 | – | > 100 | – | – | – | > 100 |
| Cc1cc(Nc2nc(-c3cccnc3)nc3ccccc23)n[nH]1 | 2.72 | > 100 | 1.39 | > 24.2 | 10.1 | > 100 | 0.481 | > 38.5 | 0.325 | – | 4.83 | > 100 | 2.47 | > 67.2 | 2.05 | > 100 | 7.77 | > 100 | 1.31 | > 100 |
| O=C1NC(=O)C(=Nc2cccc3c(=O)[nH][nH]c(=O)c23)C(c2nc3ccccc3s2)C1=O (stereo unspecified) | – | > 100 | – | > 100 | – | > 100 | – | – | – | > 100 | – | > 100 | – | > 100 | – | > 100 | – | – | – | > 100 |
| Brc1ccc2[nH]cc(-c3nc(-c4c[nH]c5ncccc45)cs3)c2c1 | 2.74 | 7.31 | 5.02 | 21.7 | 4.27 | 16.1 | 3.25 | 14.3 | 1.67 | 10.5 | 3.99 | 71.8 | 5.47 | 19.8 | 3.31 | 20.8 | 4.49 | 17.6 | 1.88 | 4.49 |
| CCC(c1ccc(OC)cc1)C(CC)c1ccc(O)c(CN2CCN(C)CC2)c1 (stereo unspecified) | 2.06 | 3.95 | 12.4 | 30.8 | 2.16 | 4.23 | 1.71 | 5.44 | 2.61 | 10.6 | 5.37 | 20.4 | 7.66 | 21.5 | 7.22 | 22.4 | 14.7 | 29.3 | 3.4 | 10.9 |
| Cc1ccc(NC(=O)C2C(=O)N(c3ccc(C)c(C)c3)C(=O)/C2=N\NC(N)=O)cc1C (stereo unspecified) | – | > 100 | – | > 100 | – | > 100 | – | – | – | > 100 | – | > 100 | – | > 100 | – | > 100 | – | > 100 | – | > 100 |
| COc1ccc(C(c2ccc(OCCN(C)C)cc2)c2cc3ccccc3c3ccccc23)cc1 (stereo unspecified) | 1.77 | 3.33 | 3.43 | 15.4 | 1.63 | 3.11 | – | – | 1.6 | 3.01 | 1.8 | 3.91 | 1.71 | 3.26 | 1.78 | 3.39 | 1.56 | 3.27 | 1.51 | 2.91 |
| CC(=O)N1N=C(c2ccc(Nc3ccnc4cc(Cl)ccc34)cc2)CC1c1ccc(Cl)cc1 (stereo unspecified) | 3.58 | > 100 | > 100 | > 100 | 4.88 | > 100 | 0.612 | > 100 | > 100 | > 100 | – | – | 9.1 | > 100 | 6.92 | > 100 | > 100 | > 100 | > 100 | > 100 |
| C#CC[N+](C)(CC#C)CC#C | – | > 100 | – | – | – | > 100 | – | – | – | > 100 | – | > 100 | – | > 100 | – | > 100 | – | > 100 | – | > 100 |
| COc1cc(-c2cc(-c3ccc(Nc4ccnc5cc(Cl)ccc45)cc3)nc(N3CCOCC3)n2)cc(OC)c1OC | 1.95 | 4.12 | 11.4 | 38.2 | 1.98 | 3.93 | 0.468 | 2.41 | – | – | 1.54 | 6.17 | 2.04 | 5.7 | 1.89 | 4.3 | 2.19 | 4.72 | 2.08 | 4.81 |
| O=C(CSc1ncn[nH]1)C[P+](c1ccccc1)(c1ccccc1)c1ccccc1 | – | > 100 | – | – | – | > 100 | – | – | – | > 100 | – | > 100 | – | > 100 | – | > 100 | – | > 100 | – | > 100 |
| CCOc1ccc2c(c1)[n+]([O-])c(-c1ccc(Br)cc1)c(N)[n+]2[O-] | – | > 100 | – | > 100 | – | > 100 | – | – | – | 64.1 | – | > 100 | – | > 100 | – | > 100 | – | > 100 | – | > 100 |
| Oc1ccc(O)c(-c2cc(-c3ccc(Cl)cc3)nn2-c2ccccc2)c1 | 20 | 39.2 | 5.97 | 24.3 | – | – | 3 | 14.4 | 18.8 | 39.6 | 3.06 | > 100 | 2.71 | 12.2 | – | – | 3.11 | 10.7 | 2.21 | 5.4 |
| COc1ccccc1C1=C(Nc2ccccc2)C(=O)NC1=O | > 25 | > 25 | – | – | > 25 | > 25 | – | – | > 25 | > 25 | – | – | > 25 | > 25 | > 25 | > 25 | > 25 | > 25 | > 25 | > 25 |
| COc1cc2c(cc1OC)C(Sc1ccc(SC)cc1)c1c(nc(N)c(C#N)c1N)O2 (stereo unspecified) | 1.63 | 3.01 | 1.64 | 3.04 | 1.72 | 3.22 | 0.354 | 2.35 | – | – | 0.571 | 4.28 | 1.6 | 3.1 | 1.64 | 3.27 | 1.87 | 3.5 | 1.53 | 2.85 |
